The record followed here is patent publication US9381210B2 (Wisconsin Alumni Research Foundation, priority 2013, dated 2016).

Test [1] concerns CML sCD34+ cells. In words: Hematopoietic colony-forming assay. It is filed as cell-based, human. The source says:
CD43^+ hematopoietic cells were collected from differentiated iPSC cultures using MACS and labeled with CD235a/CD41a FITC, CD45 APC and CD38 PE (BD Pharmingen). Lin^−CD45^+CD38^+ and lin^−CD45^+CD38^− subpopulations were obtained by fluorescence-activated cell sorter (FACSAria) (Vodyanik et al., 2006). Bone marrow mononuclear cells from CML patients in the chronic phase were purchased commercially (AllCells or Applied StemCells), or obtained from the patients at the University of Wisconsin Hospital and Clinics (Madison, Wis.) with approval from the University of Wisconsin Institutional Review Board. Donors had previously signed an Institutional Review Board-approved consent. Bone marrow cells from healthy donors were obtained from Cincinnati Children's Hospital Medical Center (CCHMC). Mononuclear cells were labeled with the lineage-specific markers CD2, CD3, CD14, CD15, CD16, CD19, CD20, CD24, CD41a, CD56, CD66b, and Glycophorin A (FITC-conjugated antibodies), CD34 APC (BD Pharmingen) and DAPI to exclude dead cells. Live lin^−CD34^+ cells were isolated using FACSAria (BD).
Hematopoietic clonogenic assays were performed using serum-containing StemMACS semisolid clonogenic medium (Miltenyi Biotec, CA). Colonies were scored after fourteen to 21 days of incubation.

The subject of test [2] is OLFM4. In words: OLFM4 expression by QPCR in CML iCD34+ cells. In kind it is cell-based, human. Conditions: CML iCD34+ cells treated with imatinib. How it is done: iPSCs-derived lin^−CD34^+CD45^+ cells and somatic CML bone marrow lin^−CD34^+ were transfected with 100 nM of either siOLFM4 or scrambled (AllStars Neg. siRNA AF 488) using HiPerfect transfection reagent according to the manufacturer's protocol (all from Qiagen). The transfection efficiency was 50-60% as evaluated by using control ALLStars Neg. siRNA AF488. As determined by QPCR performed 24 hours after transfection, the silencing efficiency was 70-75% (FIG. 9D).
RNA was isolated from the cell subpopulations using PureLink RNA mini kit (Life Technologies). cDNA synthesis was carried out using Advantage RT-for-PCR kit (Clontech). Quantitative real-time PCR analysis was performed using Gand PlatinumSYBR Green qPCR SuperMix-UDG kit (Life Technologies) and self-designed specific primers for BCR-ABL (forward […] (SEQ ID NO:1); reverse […] (SEQ ID NO:2)), OLFM4 (forward […] (SEQ ID NO:3); reverse […] (SEQ ID NO:4)) and GAPDH (forward […] (SEQ ID NO:5); reverse […] (SEQ ID NO:6)).
The reactions were run on a Mastercyclerep Realplex™ thermal cycler (Eppendorf) and expression levels were calculated by minimal cycle threshold values (Ct) normalized to the reference expression of GAPDH in each sample (Pfaffl, 2001). When specified, K562 was used as a reference. All QPCR products were analyzed on 1.2% agarose gels to confirm the specificity of detection.

Another test relates to CML iCD34+ cells. In words: Adhesion assay to fibronectin. It is filed as cell-based, human. Conditions: 5 μM imatinib, 24 hours.
Test [3] relates to CML sCD34+ cells. Briefly: Long-term culture initiating cell assay (LTC-IC). It is filed as cell-based, human. Conditions: imatinib. How it is done:
Sorted iPSC-derived lin^−CD34^+CD45^+ cells were plated in a six-well plate at 10^4 cells/well containing 5-7 day-old cultures of murine 1×10^5 M2-10B4 and OP9 stromal cells (1:1 ratio mix) in LTC-IC medium consisting of SFM supplemented with 10 μM hydrocortisone, 50 ng/ml SCF, 5 ng/ml IL3, and 50 ng/ml IL6. Cultures were maintained at 37° C. in a humidified atmosphere with 5% CO2, and fed at weekly intervals. After five weeks, cells were harvested and analyzed for CFC potential as described above. LTC-IC assay for somatic lin^−CD34^+CD45^+ cells was performed using M2-10B4 cells exactly as described in the Stem Cell Technologies protocol to be found online at stemcell.com/en/Technical-Resources/db5a9/28412_Itc_ic-H.aspx.

In another test the test system is iCML CD34+ cells. Conditions: CFSE cultures, 5 μM imatinib, four days, annexin V.
Test [4] concerns lin-CD34+ cells from CML bone marrow. In words: Xenograft of siRNA-treated CML lin-CD34+ cells. In kind it is in vivo, Nod scid gamma (NSG) mice. Conditions: four mice, 16 weeks; two out of four control siRNA animals engrafted. How it is done:
Sorted lin^−CD34^+ cells from CML bone marrow were transduced with either AllStars Negative control or OLFM4 siRNA for 24 hours. Cells were then washed and transplanted into Nod scid gamma (NSG) mice at 5-10×10^3 cells. Four mice were injected with cells treated with control siRNA and four mice were injected with OLFM4 siRNA. The mice were then analyzed at 16 weeks using flow cytometry for live human CD45^+ cells in bone marrow, liver, spleen, and peripheral blood.
The cultured cells were labeled with human CD45, mouse CD45 and DAPI and sorted for live human CD45^+ mouse CD45^− cells. The sorted cells were then plated in methyl cellulose media for hematopoietic progenitor assay and RNA extracted for PCR.

In the next test the test system is sCD34+ cells. Briefly: Cell proliferation assay. In kind it is cell-based, human. The settings on record: serum-free cultures without cytokines, OLFM4 300 ng/ml. How it is done:
Total lin^−CD34^+, lin^−CD34^+CD38^− or lin^−CD34^+CD38^+ were plated in triplicate in 96-well plate at 10^3 cells/well. […] When specified, the 300 ng/ml OLFM4 (Acro Biosystem) or the following growth factors were added: 10 ng/ml IL3, 100 ng/ml SCF, 100 ng/ml Flt3L, 100 ng/ml IL6 and 200 ng/ml GM-CSF. Viable cell yields were determined by counting trypan blue excluding viable cells using a hemocytometer.

The test system of test [5] is OLFM4. In words: OLFM4 expression by RT-PCR/QPCR in sCD34+ cells. It is filed as cell-based, human. The settings on record: sCD34+ cells treated with G-CSF (10 ng/ml, 24 hours).

Description for iCML CD34+ cells: Differentiated cells were labeled with 1 μM carboxy-fluorescein diacetate succinimidyl diester (CFSE; Molecular Probes, Eugene, Oreg.) as previously described (Copland et al., 2006; Holtz et al., 2002). These cells were then incubated overnight in CSSM medium supplemented with growth factors to allow excess unbound dye to leak out of the cells. Cells cultured in the presence of 10 μg/ml mitomycin C (Sigma Aldrich) were used to establish the CFSEmax (undivided cell population). The next day, CFSE^bright cells were sorted by FACArias to exclude non-labeled and CFSE^dim populations. […] At the end of the culture period, cells were stained with CD34-APC and 7AAD for flow cytometry analysis. The percentage of cells in each generation was determined using FlowJo software (Tree Star, Ashland, Oreg.), with the position of the parent generation set on the basis of the fluorescence profile of undivided cells.

With `Cc1ccc(NC(=O)c2ccc(CN3CCN(C)CC3)cc2)cc1Nc1nccc(-c2cccnc2)n1` [imatinib, 4-[(4-methylpiperazin-1-yl)methyl]-N-(4-methyl-3-{[4-(pyridin-3-yl)pyrimidin-2-yl]amino}phenyl)benzamide], the “response of parental bone marrow cells to imatinib (myeloid CFC potential)” value with CML sCD34+ cells [1] (parental lin-CD34+ BM cells of the CML patient, 5 μM imatinib, 24 hours pretreatment) was “sensitivity”. In the test with OLFM4 [2], the “OLFM4 expression (QPCR)” value was “augmentation of OLFM4 expression”. Also, in the test on CML iCD34+ cells, the adhesion to fibronectin entry is on record as “partially restored”. Also, the LTC-ICs result with CML sCD34+ cells [3] was “little effect”. In the test on iCML CD34+ cells, the “apoptosis in more mature iCD34dim and iCD34- cells” value is given as “substantial increase in apoptosis”; the “apoptosis in most primitive iCD34bright cells” value is “resistant to imatinib-induced apoptosis”.
Regarding “OLFM4: OLFM4 protein (Acro Biosystem) added to medium at 300 ng/ml; secreted glycoprotein”, the “reversal of the knockdown effect on CFCs by OLFM4 pretreatment” value in the test on CML sCD34+ cells [1] (CML sCD34+ cells, OLFM4 protein 300 ng/ml) is “can be reversed”. Moreover, the “animals showing engraftment (live human CD45+ cells)” value in test [4] was “none”. Further, the “proliferation of sCD34+ cells” value with sCD34+ cells is listed as “potentiates expansion”; in the test with sCD34+ cells (listed as OLFM4 protein), “enhanced proliferation”.

B1: G-CSF: cytokine used at 10 ng/ml to induce OLFM4 expression in sCD34+ cells (protein, UniProt P09919 31-207, looked up)
Granulocyte …: TPLGPASSLPQSFLLKCLEQVRKIQGDGAALQEKLVSECATYKLCHPEELVLLGHSLGIPWAPLSSCPSQALQLAGCLSQLHSGLFLYQGLLQALEGISPELGPTLDTLQLDVADFATTIWQQMEELGMAPALQPTQGAMPAFASAFQRRAGGVLVASHLQSFLEVSYRVLRHLAQP
B1: the OLFM4 expression result with OLFM4 [5] is “rapidly induced”.
